Experimental data published in the supplement of paper PMC10331698.
± gives the standard deviation of the averaged measurements.

Key:
Assay in all cases: level (log10 ratio to DMSO vehicle control); higher = higher biomarker level / cell amount than vehicle control
Octafluoroadipic acid = compound: O=C(O)C(F)(F)C(F)(F)C(F)(F)C(F)(F)C(=O)O [Octafluoroadipic acid] (in DMSO)
Method: (§1)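 BioMAP Diversity Plus panel of 12 human primary cell co-culture systems (3C, 4H, LPS, SAg, BT, BF4T, BE3C, CASM3C, HDF3CGF, KF3CT, MyoF, Mphg). Compounds were added 1 h before stimulation and left for 24 h (MyoF 48 h; BT 72 h for soluble read-outs or 6 d for IgG). Biomarkers were read by ELISA, cytotoxicity by SRB, PBMC viability and proliferation by Alamar Blue. Each well value was divided by the mean of 8 DMSO control wells on the same plate and log10 transformed; duplicate blinded samples were tested at 4 concentrations.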

[1] = compound: NS(=O)(=O)C(F)(F)C(F)(F)C(F)(F)C(F)(F)C(F)(F)C(F)(F)C(F)(F)C(F)(F)F [Perfluorooctanesulfonamide] (in DMSO)
Method: as §1

[2] = compound: OCC(F)(F)C(F)(F)C(F)(F)C(F)F [1H,1H,5H-Perfluoropentanol] (in DMSO)
Method: as §1

[3] = compound: C[C@@H]1C[C@H]2[C@@H]3CCC4=CC(=O)C=C[C@]4(C)[C@@]3(F)[C@@H](O)C[C@]2(C)[C@@]1(O)C(=O)COP(=O)(O)O [Dexamethasone sodium phosphate] (in DMSO)
Method: as §1

[4] = compound: O=S(=O)(O)C(F)(F)C(F)(F)C(F)(F)C(F)(F)C(F)(F)C(F)(F)C(F)(F)F [Perfluoroheptanesulfonic acid] (in DMSO)
Method: as §1

[5] = compound: C=C(C)C(=O)OCCC(F)(F)C(F)(F)C(F)(F)C(F)(F)C(F)(F)C(F)(F)C(F)(F)C(F)(F)F [8:2 Fluorotelomer methacrylate] (in DMSO)
Method: as §1

Test System | level (log10) (Octafluoroadipic acid; 6700 nM) | level (log10) (Octafluoroadipic acid; 20000 nM) | level (log10) (Octafluoroadipic acid; 60000 nM) | level (log10) ([1]; 6700 nM) | level (log10) ([1]; 20000 nM) | level (log10) ([2]; 6700 nM) | level (log10) ([2]; 20000 nM) | level (log10) ([2]; 60000 nM) | level (log10) ([3]; 1500 nM) | level (log10) ([3]; 4400 nM) | level (log10) ([3]; 13000 nM) | level (log10) ([3]; 40000 nM) | level (log10) ([4]; 1500 nM) | level (log10) ([4]; 4400 nM) | level (log10) ([4]; 13000 nM) | level (log10) ([4]; 40000 nM) | level (log10) ([5]; 6700 nM) | level (log10) ([5]; 20000 nM)
LPS:CD69 | 0.0545 ± 0.076 | 0.0595 ± 0.047 | 0.0515 ± 0.064 | -0.0475 ± 0.0064 | -0.13 | -0.02 ± 0.011 | -0.0015 ± 0.013 | 0.0175 ± 0.0078 | 0.016 ± 0.1 | -0.009 ± 0.052 | -0.042 ± 0.038 | -0.0335 ± 0.039 | -0.01 ± 0.025 | -0.006 ± 0.0057 | -0.004 ± 0.025 | -0.015 ± 0.061 | -0.0425 ± 0.04 | -0.0355 ± 0.05
LPS:CD106/VCAM-1 | -0.0235 ± 0.037 | -0.0175 ± 0.025 | -0.017 ± 0.048 | 0.0075 ± 0.0035 | 0.0115 ± 0.016 | 0.007 ± 0.014 | -0.008 ± 0.0042 | 0.0095 ± 0.0035 | 0.0095 ± 0.005 | -0.0285 ± 0.026 | -0.0135 ± 0.0035 | -0.0375 ± 0.023 | 0.015 ± 0.023 | 0.009 ± 0.031 | -0.0235 ± 0.052 | -0.01 ± 0.035 | -0.032 ± 0.054 | -0.0515 ± 0.049
LPS:CD141/Thrombomodulin | -0.014 ± 0.0014 | -0.0135 ± 0.028 | 0.006 ± 0.014 | 0.037 ± 0.072 | 0.0785 ± 0.066 | -0.0125 ± 0.0035 | 0.008 ± 0.02 | 0.023 ± 0.0099 | 0.05 ± 0.031 | 0.035 ± 0.028 | 0.0125 ± 0.039 | 0.032 ± 0.027 | 0.028 ± 0.011 | -0.0075 ± 0.026 | 0.006 ± 0.03 | -0.0065 ± 0.023 | -0.021 ± 0.038 | -0.064 ± 0.0099
LPS:CD142/Tissue Factor | -0.0105 ± 0.022 | 0.02 ± 0.034 | 0.0215 ± 0.0078 | -0.024 ± 0.047 | -0.043 ± 0.0071 | -0.001 ± 0.021 | 0.017 ± 0.03 | 0.023 ± 0.021 | 0.0495 ± 0.026 | 0.03 ± 0.023 | 0.014 ± 0.03 | 0.038 ± 0.028 | 0.0145 ± 0.049 | 0.006 ± 0.0042 | 0.0615 ± 0.063 | 0.0555 ± 0.061 | 0.0615 ± 0.063 | 0.0315 ± 0.083
LPS:CXCL8/IL-8 | 0.0015 ± 0.032 | -0.0035 ± 0.054 | 0.0415 ± 0.1 | 0.005 ± 0.016 | -0.008 ± 0.0014 | 0.004 ± 0.0057 | 0.0185 ± 0.005 | 0.001 ± 0.025 | 0.026 ± 0.014 | -0.017 ± 0.02 | -0.0135 ± 0.025 | -0.0475 ± 0.076 | 0.015 ± 0.0071 | -0.038 ± 0.0014 | -0.0185 ± 0.033 | 0.031 ± 0.09 | -0.037 ± 0.05 | -0.0225 ± 0.076
LPS:IL-1alpha | -0.003 ± 0.0028 | 0.017 ± 0.045 | 0.029 ± 0.047 | -0.0195 ± 0.025 | -0.013 ± 0.0071 | -0.048 ± 0.021 | -0.0295 ± 0.0064 | -0.003 ± 0.0099 | -0.0215 ± 0.0035 | -0.0475 ± 0.1 | -0.0575 ± 0.035 | -0.0835 ± 0.08 | 0.0125 ± 0.033 | -0.0015 ± 0.026 | -0.002 ± 0.069 | 0.056 ± 0.095 | 0.074 ± 0.0057 | 0.0625 ± 0.077
LPS:M-CSF | 0.002 ± 0.0099 | 0.0175 ± 0.023 | 0.0005 ± 0.00071 | -0.0035 ± 0.032 | 0.05 ± 0.04 | -0.01 ± 0.0014 | -0.0015 ± 0.029 | 0.0125 ± 0.049 | -0.0225 ± 0.016 | -0.0445 ± 0.039 | -0.0265 ± 0.0078 | -0.0515 ± 0.012 | -0.008 ± 0.027 | -0.0185 ± 0.015 | -0.0405 ± 0.013 | -0.02 ± 0.024 | -0.019 ± 0.021 | -0.0635 ± 0.00071
LPS:SRB | 0.0015 ± 0.0064 | 0.004 ± 0.0085 | -0.0055 ± 0.0064 | 0.009 ± 0.0057 | -0.0625 ± 0.0078 | -0.017 ± 0.0014 | -0.0115 ± 0.00071 | -0.0005 ± 0.0078 | 0.008 ± 0.0085 | -0.012 ± 0.0071 | -0.003 ± 0.0099 | 0.006 ± 0.031 | -0.0105 ± 0.005 | -0.0165 ± 0.0021 | -0.002 ± 0.0085 | 0.007 ± 0.02 | -0.0085 ± 0.016 | -0.0005 ± 0.023
